Data: patent publication US10160771B2, “Hepatitis C virus inhibitors and uses thereof in preparation of drugs” (priority 2014, dated 2018)

What was measured:
[1] = test system: HCV genotype 1a (HCV-1a) replicon cells; assay: HCV genotype 1a replicon luciferase assay (EC50); type: cell-based, hepatitis C virus genotype 1a (H77 clone); settings: 3 days, luciferase (Bright-Glo)
How it was run: (§1)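 EC50 values come from nonlinear fitting of inhibition derived from replicon luciferase signal. Cells (8000/well) were treated 3 days with duplicate 6-point, 5-fold dilutions, starting at 100, 10 or 1 nM, with 0.5% DMSO.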

[2] = test system: HCV genotype 1b (HCV-1b) replicon cells; assay: HCV genotype 1b replicon luciferase assay (EC50); type: cell-based, hepatitis C virus genotype 1b (Con1 clone); settings: 3 days, luciferase (Bright-Glo)
How it was run: as §1

[3] = in vitro; type: cell-based; settings: HCV 1a replicon cells, 3 days, Cell Titer-fluor
Procedure: The EC50 and CC50 values of anti-HCV compounds were determined by HCV genotype 1a (HCV-1a) and 1B (HCV-1b) stable transfer replication (replicon) cells. The source of genotype 1a replicon is H77 clones containing K1691R, K2040R and S2204I adaptive mutations. The source of genotype 1b replicon is Con1 clones containing E1202G, T1280I and K1846T adaptive mutations.
HCV Replicon Cell Lines: HCV-1a and HCV-1b Cells
The compound powder was dissolved in 100% DMSO. Then the compound was diluted 5 times with 6 points, and added into the cell plate with Echo liquid handler. Ensure the final concentration of DMSO was 0.5%. Each compound was tested in double holes. Maximum initial concentration was 100, 10 or 1 nM, 5 times dilution, 6 points.
b) Cell Culture (HCV-1a or HCV-1b Replicon Cell):
1) absorbing the culture supernatant of the cell culture and washing the cells with 10 mL PBS.
2) adding preheated pancreatin to the washed cell culture flasks, rotating culture bottle to make the bottom of the culture bottle uniformly covered by pancreatin, then placed into 37° C., 5% CO2 incubator to digest.
3) suspending cells in each T150 culture flask with 10-15 mL culture medium, absorbing 0.1 mL liquid and diluting 2 times by trypan blue solution as counted.
4) diluting cells to 8×10^4/mL with the culture medium, adding the diluted cells into the compound-containing 96-well plate (Greiner, Cat.#655090) (100 μL/well, 8000 cells/well) with automatic liquid separator (Thermo Scientific). Then place into a 37° C., 5% CO2 incubator for 3 days. Cell control well: no compound, only containing 0.5% DMSO.
5) adding chemiluminescent substrate Cell Titer-fluor to the cell well, after incubation for 30 minutes, detecting the signal by chemiluminescence detection system Envison (Ex at 405 nm and read at 515 nm). The effect of the compounds on the activity of HCV replicon cells was analyzed according to the luminescence data, which was used to calculate the CC50 values.
The EC50 or CC50 values were obtained by nonlinear fitting analysis on inhibition percentage (inh %) data with GraphPad Prism software.

[4] = Cell Titer-fluor cell activity assay in HCV-1b replicon cells (CC50); type: cell-based
How it was run: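 CC50 derived by nonlinear fitting of inhibition % from Cell Titer-fluor signal (405/515 nm, 30 min). Cells: genotype 1b Con1 replicon carrying E1202G, T1280I, K1846T, seeded 8000/well with compound for 3 days, 37 °C, 0.5% DMSO; 6 points, 5-fold dilution, top 100, 10 or 1 nM, duplicates.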

COC(=O)NC(C(=O)N1CCC[C@H]1c1ncc(-c2ccc(-c3ccc(-c4[nH]c(C5CCCN5C(=O)[C@@H](NC(=O)OC)C(C)C)c5c4CCC5)cc3)cc2)[nH]1)C1CCOC1 (stereo partly drawn) [AG_049]
EC50 ([1]; Hepatitis C virus, 72 h): 10 to 100 nM
EC50 ([2]; Hepatitis C virus, 72 h): 0.001 to 0.1 nM
CC50 [3]: > 100 nM
CC50 at 3 days [4]: > 100 nM

COC(=O)NC(C(=O)N1CCC[C@H]1c1ncc(-c2ccc(-c3ccc(-c4[nH]c(C5CCCN5C(=O)[C@@H](NC(=O)OC)C(C)C)c5c4CCC5)cc3)cc2)[nH]1)C1CCOC(C)C1 (stereo partly drawn) [AG_050]
EC50 ([1]; Hepatitis C virus, 72 h): 1 to 10 nM
EC50 ([2]; Hepatitis C virus, 72 h): 0.001 to 0.1 nM
CC50 [3]: > 100 nM
CC50 at 3 days [4]: > 100 nM

COC(=O)NC(C(=O)N1CCC[C@H]1c1ncc(-c2ccc3cc(-c4ccc(-c5[nH]c(C6CCCN6C(=O)[C@@H](NC(=O)OC)C(C)C)c6c5CCC6)cc4)ccc3c2)[nH]1)C1CCOCC1 (stereo partly drawn) [AG_051]
EC50 ([1]; Hepatitis C virus, 72 h): 1 to 10 nM
EC50 ([2]; Hepatitis C virus, 72 h): 0.101 to 1 nM
CC50 [3]: > 100 nM
CC50 at 3 days [4]: > 100 nM

COC(=O)N[C@H](C(=O)N1CCC[C@H]1c1ncc(-c2ccc(-c3ccc(-c4ccc(C5CCCN5C(=O)[C@@H](NC(=O)OC)C(C)C)[nH]4)cc3)cc2)[nH]1)c1ccccc1 (stereo partly drawn) [AG_052]
EC50 ([1]; Hepatitis C virus, 72 h): 1 to 10 nM
EC50 ([2]; Hepatitis C virus, 72 h): 0.001 to 0.1 nM
CC50 [3]: > 100 nM
CC50 at 3 days [4]: > 100 nM

COC(=O)N[C@H](C(=O)N1CCCC1c1ccc(-c2ccc(-c3ccc(-c4cnc([C@@H]5CCCN5C(=O)[C@@H](NC(=O)OC)C5CCOC(C)C5)[nH]4)cc3)cc2)[nH]1)C(C)C (stereo partly drawn) [AG_053]
EC50 ([1]; Hepatitis C virus, 72 h): 1 to 10 nM
EC50 ([2]; Hepatitis C virus, 72 h): 0.101 to 1 nM
CC50 [3]: > 100 nM
CC50 at 3 days [4]: > 100 nM

COC(=O)N[C@H](C(=O)N1CCC[C@H]1c1ccc(-c2ccc(-c3ccc(-c4cnc([C@@H]5CCCN5C(=O)[C@@H](NC(=O)OC)[C@@H](C)OC)[nH]4)cc3)cc2)[nH]1)[C@@H](C)OC [AG_118_B]
EC50 ([1]; Hepatitis C virus, 72 h): 1 to 10 nM
EC50 ([2]; Hepatitis C virus, 72 h): 0.001 to 0.1 nM
CC50 at 3 days [4]: > 1 nM

COC(=O)N[C@@H](CO)C(=O)N1CCC[C@H]1c1ncc(-c2ccc(-c3ccc(-c4ccc([C@@H]5CCCN5C(=O)[C@@H](NC(=O)OC)C(C)OC)[nH]4)cc3)cc2)[nH]1 (stereo partly drawn) [AG_119]
EC50 ([1]; Hepatitis C virus, 72 h): 0.101 to 1 nM
EC50 ([2]; Hepatitis C virus, 72 h): 0.001 to 0.1 nM
CC50 at 3 days [4]: > 1 nM

COC(=O)N[C@H](C(=O)N1CCC[C@H]1c1ccc(-c2ccc(-c3ccc(-c4cnc([C@@H]5CCCCN5C(=O)[C@@H](NC(=O)OC)[C@@H](C)OC)[nH]4)cc3)cc2)[nH]1)[C@@H](C)OC [AG_120]
EC50 ([1]; Hepatitis C virus, 72 h): 1 to 10 nM
EC50 ([2]; Hepatitis C virus, 72 h): 0.001 to 0.1 nM
CC50 at 3 days [4]: > 1 nM

COC(=O)N[C@H](C(=O)N1CCC[C@H]1c1[nH]c(-c2ccc(-c3ccc(-c4cnc([C@@H]5CCCCN5C(=O)[C@@H](NC(=O)OC)[C@@H](C)OC)[nH]4)cc3)cc2)c2c1CCCO2)C(C)C [AG_121]
EC50 ([1]; Hepatitis C virus, 72 h): 10 to 100 nM
EC50 ([2]; Hepatitis C virus, 72 h): 0.001 to 0.1 nM
CC50 at 3 days [4]: > 1 nM

COC(=O)N[C@H](C(=O)N1CCC[C@H]1c1ncc(-c2ccc(-c3ccc(-c4[nH]c([C@@H]5CCCN5C(=O)[C@@H](NC(=O)OC)C(C)C)c5c4OCC5)cc3)cc2)[nH]1)C(C)C [AG_122_A]
EC50 [1]: 1 to 10 nM
EC50 [2]: 0.001 to 0.1 nM
CC50 at 3 days [4]: > 1 nM

COC(=O)N[C@H](C(=O)N1CCC[C@@H]1c1[nH]c(-c2ccc(-c3ccc(-c4cnc([C@@H]5CCCN5C(=O)[C@@H](NC(=O)OC)C(C)C)[nH]4)cc3)cc2)c2c1CCO2)C(C)C [AG_122_B]
EC50 ([1]; Hepatitis C virus, 72 h): 10 to 100 nM
EC50 ([2]; Hepatitis C virus, 72 h): 0.101 to 1 nM
CC50 at 3 days [4]: > 1 nM

COC(=O)N[C@H](C(=O)N1CCCC[C@H]1c1ncc(-c2ccc(-c3ccc(-c4[nH]c([C@@H]5CCCN5C(=O)[C@@H](NC(=O)OC)C(C)OC)c5c4COC5)cc3)cc2)[nH]1)C(C)C (stereo partly drawn) [AG_123]
EC50 ([1]; Hepatitis C virus, 72 h): 1 to 10 nM
EC50 ([2]; Hepatitis C virus, 72 h): 0.001 to 0.1 nM
CC50 at 3 days [4]: > 1 nM

COC(=O)N[C@H](C(=O)N1CCC[C@H]1c1[nH]c(-c2ccc(-c3ccc(-c4cnc([C@@H]5CCCCN5C(=O)[C@@H](NC(=O)OC)[C@@H](C)OC)[nH]4)cc3)cc2)c2c1COC2)C(C)OC (stereo partly drawn) [AG_124]
EC50 ([1]; Hepatitis C virus, 72 h): 0.101 to 1 nM
EC50 ([2]; Hepatitis C virus, 72 h): 0.001 to 0.1 nM
CC50 [3]: > 100 nM
CC50 at 3 days [4]: > 1 nM
